The results in this text go back to patent US8889123B2, “Compositions and soft tissue replacement methods” (Allergan, Inc., priority 2010, dated 2014).

The subject of test [1] is FGF-2. As to the kind of experiment: Oral ulcer wound model, FGF-2 up-regulation. Format: in vivo.
The subject of test [2] is VEGF. Put plainly: Oral ulcer wound model, VEGF up-regulation. Type of test: in vivo.
Test [3] concerns VEGF. As to the kind of experiment: Incisional wound model, VEGF expression in skin wound tissue by Western blot. The conditions noted are these: topical 0.004% twice daily vs vehicle. Type of test: in vivo, Sprague-Dawley rats. The text has this: (§1) To test whether the compounds of Formula I promote the formation of blood vessels, and incisional wound model was employed over a 14-day period. Sprague-Dawley rats (180-200 g) were anesthetized, the backs shaved, and a 2-cm long incision was made on the back skin of rats under sterile conditions, reaching the deep fascia. The wound was immediately closed with 4-0 sutures. The animals were topically treated with vehicle or Compound 1 at 0.004% twice daily. The vehicle contains ethanol 30%, propylene glycol 12%, dipropylene glycol 5%, benzyl alcohol 5%, glycerol 3% and normal saline 45%. Biopsy samples of skin wound tissues were analyzed with Western blots day-7 and day-14 post-surgery. Tissue samples about 1 mm thick were taken from both sides of the wound. Protein was extracted, and FGF-2/VEGF expression was monitored, with Western blot analysis.

The subject of test [4] is FGF-2. Put plainly: Incisional wound model, FGF-2 expression in skin wound tissue by Western blot. Format: in vivo, Sprague-Dawley rats. Particulars: topical 0.004% twice daily vs vehicle.
From the text: as §1

For the compound `CC1(C)C(=O)[C@H](C/C=C\CCCC(=O)O)[C@@H](/C=C/[C@H](O)CCc2sc3ccccc3c2Cl)[C@@H]1O` [Compound 1], the “up-regulation of FGF-2” value in test [1] is on record as “up-regulation”. The “up-regulation of VEGF” value in test [2] is listed as “up-regulation”. Besides, the “VEGF expression increase, normalized with β-actin” value in test [3] (day-7, P=0.039) was 25%. Moreover, the “increase in VEGF synthesis by day-14” value in test [3] (day-14) is “returned to the baseline”. The “enhanced expression of FGF-2, normalized with β-actin” value in test [4] (day-7, P=0.004) is reported as 60%. In addition, the “increase in FGF-2 synthesis over the whole study period” value in test [4] (whole study period (day-14), P=0.04) is given as “persisted for the whole study period”.
